Assay results as given in patent publication US20230405156A1, “METHODS OF DIAGNOSING AND PROGNOSING CANCERS OF THE HEAD AND NECK” (priority 2021, published 2023).

Experiments:
SSTR = details: five patients with primary EBV-positive NPC; cited from earlier work
[1] = system: LMP1-induced SSTR2 expression in NP69 cells; experiment: LMP1-induced SSTR2 expression in NP69 cells under pathway inhibitors; type: cell-based, human; details: NP69 cells expressing LMP1
From the text: FIGS. 2A-2K. EBV infection is associated with SSTR2 upregulation in NPC—in vitro experiments and external validation dataset. a Immunofluorescence analysis of EBNA1 (red) and SSTR2 (green) expression in two representative examples of cultured primary respiratory epithelial cells before and after infection with the epitheliotropic M81 EBV strain. Nuclei are counterstained with DAPI (blue); Replication (n=5). b Percentages of cells positive for EBNA1 or co-expression of SSTR2 and EBNA1 c LMP1 induces SSTR2 expression in NP69, an immortalized normal nasopharyngeal epithelial cell line (relative quantities of SSTR2 were calculated using the comparative threshold cycle method and normalized using human beta-actin as endogenous control. Data is presented as a ratio relative to vector control). d LMP1-mediated SSTR2 induction in NP69 cells is inhibited by ectopic expression of TRAF3, a negative regulator of NF-κB. e In NP69 cells, LMP1-induced SSTR2 expression is suppressed by the NF-κB inhibitor BAY 11-7085 and MEK inhibitor U0126. f Both CTAR1 and CTAR2 regions of LMP1 (FIG. 6) are essential for LMP1-mediated SSTR2 induction. […] The color of the samples is based on unsupervised hierarchical clustering. […] Middle panel, Microarray SSTR2 expression is positively correlated with viral LMP1 expression (W=129, p=0.041, Wilcoxon two-sided test). […]

[2] = system: SSTR2 expression in C666-1 cells; experiment: SSTR2 expression in C666-1 cells under pathway inhibitors; type: cell-based
C666-1 cells [3] = experiment: RNA-seq analysis of C666-1 cells treated with SSTR2-targeted drugs; type: cell-based; details: for cell senescence pathways (geneset enrichment) / pathways related to somatostatin biology such as interleukin signaling (geneset enrichment) / cell death/apoptotic pathways (geneset enrichment): 24 h post-treatment; for cell death/apoptotic pathways (geneset enrichment): lanreotide or octreotide; for SSTR2 expression (RNA-seq): lanreotide or octreotide treatment
Protocol: RNA-seq analysis. C666-1 cells were seeded at a density of 1×10^6/well in six-well plates 2 days prior to compound addition. […] Untreated and DMSO-treated (1:2000 in medium) wells were used as controls. 24 and 72 h post-PEN-221 addition, DNA and RNA extraction was performed from separate wells using Quick-DNA Plus and Direct-zol RNA Plus Kit (Zymo Research, Irvine, CA, USA) according to the manufacturers' instructions.
RNA concentration was normalized to 100 ng/50 μl and Illumina libraries prepared using a NEBNext Poly(A) mRNA Magnetic Isolation Module in conjunction with a NEBNext Ultra II Directional RNA Library Prep Kit (New England Biolabs), according to the manufacturer's instructions using adapters diluted 1:50. Libraries were quantitated using the Agilent High Sensitivity D1000 ScreenTape System on a 2200 Tapestation (Agilent), pooled at equimolar concentration, denatured and sequenced on a NextSeq 500 (Illumina). RNA sequencing transcript abundance was estimated from fastq files using the reference-free quantification tool salmon with the gencode GRCh37 transcript annotation. Differential expression analysis was performed using DESeq237 with treatment, time and batch (where applicable) as covariates. Geneset enrichment analysis was performed using the GSEA function from clusterProfiler, with the reactome database pathways on the gene DESeq2 Wald statistics and a minimum and maximum pathway size of 25 and 500, respectively.

NPC43 cells = experiment: MTT-based cell viability assay (in vitro proliferation/survival); details: 7 days, dilutions starting from 10 μM
Protocol: (§1) Culture of the cell lines. C666-1 cells were cultured in RPMI-1640 with 25 mM Hepes (Lonza, Berlin, Germany) supplemented with 10% heat-inactivated FCS (Gibco, Carlsbad, CA), 2 mM L-Glutamine, 100 units/ml penicillin (Gibco), and 0.1 mg/ml streptomycin (Gibco). Cells were maintained at 37° C., 5% CO2 and passaged every 7 days at a 1:2 ratio using accutase (Sigma, St. Louis, MO, USA). Seventy-five percent of culture medium was replaced by fresh medium every 2-3 days. NPC43 and C17 cell lines were cultured in RPMI-1640 with 25 mM Hepes (Lonza, Berlin, Germany) supplemented with 10% heat-inactivated FCS (Gibco, Carlsbad, CA), 2 mM L-Glutamine, 100 units/ml penicillin (Gibco) and 0.1 mg/ml streptomycin (Gibco) and 4 μM Y27632 (Promocell, Heidelberg, Germany). Cells were maintained at 37° C., 5% CO2 and passaged 5 days at a 1:4 ratio using accutase (Sigma, St. Louis, MO, USA). Culture medium was replaced by fresh medium every 2 to 3 days.
(§2) MTT-based cell viability assay. Two days prior addition of test compounds, NPC cells were plated at a density of 2×10^4 cells/well in 96-well plates. Compounds were prepared as advised by manufacturers, diluted half logarithmic in medium and added to the wells in quadruplicate starting from 10 μM (30 μM for cisplatin). PEN-211 containing medium was removed after 2 h, cells were washed with PBS and fresh medium was added. Plates were incubated in a humified chamber for 7 days; 50% of medium were exchanged every other day with fresh drug dilutions. MTT (3-[4,5-dimethylthiazol-2-yl]-2,5 diphenyl tetrazolium bromide) reagent (20 μl/well of 5 mg/ml solution) (Sigma-Aldrich) was added and solubilized after 4 h using 100 μl of a […] SDS/0.01M HCl solution. Dual absorbance was measured after 5 h in a microplate reader (Epoch BioTek, BioTek Instruments, Bad Friedrichshall, Germany) using 550 nm as measurement and 655 nm as reference filter. After subtraction of background absorbance, fractions of surviving cells were obtained by normalization to the mean of nontreated samples.

C666-1 cells [4] = experiment: as above; details: 7 days, dilutions starting from 10 μM
Protocol: as §1, §2

C[C@@H](O)[C@@H]1NC(=O)[C@H](CCCCN)NC(=O)[C@@H](Cc2c[nH]c3ccccc23)NC(=O)[C@H](Cc2ccc(O)cc2)NC(=O)[C@@H](NC(=O)[C@@H](Cc2ccccc2)NC(=O)CN2CCN(CC(=O)[O-])CCN(CC(=O)[O-])CCN(CC(=O)[O-])CC2)CSSC[C@@H](C(=O)N[C@H](CO)[C@@H](C)O)NC1=O.[68Ga+3] [68Ga-DOTA-(Tyr3)-octreotide, ^68Ga-labeled 1,4,7,10-tetraazacyclododecane-N,N9,N99,N999 tetraacetic acid-D-Phe1-Tyr3-octreotide (DOTA-TOC)]
tumor uptake (SSTR): increased uptake

CC(C)(C)c1ccc(S(=O)(=O)/C=C/C#N)cc1 [BAY 11-7085]
LMP1-induced SSTR2 expression [1]: suppressed
SSTR2 expression [2]: suppressed

N#CC(=C(/N)Sc1ccccc1N)/C(C#N)=C(\N)Sc1ccccc1N [U0126]
LMP1-induced SSTR2 expression [1]: suppressed
SSTR2 expression [2]: suppressed

CC(C)[C@@H]1NC(=O)[C@H](CCCCN)NC(=O)[C@@H](Cc2c[nH]c3ccccc23)NC(=O)[C@H](Cc2ccc(O)cc2)NC(=O)[C@@H](NC(=O)[C@H](N)Cc2ccc3ccccc3c2)CSSC[C@@H](C(=O)N[C@H](C(N)=O)[C@@H](C)O)NC1=O [lanreotide]
cell senescence pathways (geneset enrichment) (C666-1 cells [3]): upregulation of senescence pathways
pathways related to somatostatin biology such as interleukin signaling (geneset enrichment) (C666-1 cells [3]): induced upregulation
cell death/apoptotic pathways (geneset enrichment) (C666-1 cells [3]): no changes
cell senescence pathways (geneset enrichment) (C666-1 cells [3]; listed as Lanreotide): upregulation of cell senescence pathways
SSTR2 expression (RNA-seq) (C666-1 cells [3]): did not affect SSTR2 expression
in vitro proliferation (NPC43 cells): did not affect in vitro proliferation
in vitro proliferation (C666-1 cells [4]): did not affect in vitro proliferation

C[C@@H](O)[C@@H]1NC(=O)[C@H](CCCCN)NC(=O)[C@@H](Cc2c[nH]c3ccccc23)NC(=O)[C@H](Cc2ccccc2)NC(=O)[C@@H](NC(=O)[C@H](N)Cc2ccccc2)CSSC[C@@H](C(=O)N[C@H](CO)[C@@H](C)O)NC1=O [octreotide]
cell senescence pathways (geneset enrichment) (C666-1 cells [3]): upregulation of cell senescence pathways
pathways related to somatostatin biology such as interleukin signaling (geneset enrichment) (C666-1 cells [3]): induced upregulation
cell death/apoptotic pathways (geneset enrichment) (C666-1 cells [3]): no changes
SSTR2 expression (RNA-seq) (C666-1 cells [3]): did not affect SSTR2 expression
in vitro proliferation (NPC43 cells): did not affect in vitro proliferation
in vitro proliferation (C666-1 cells [4]): did not affect in vitro proliferation
